Reference: ChEMBL document CHEMBL5331085 (Eur J Med Chem, 2023)
Converted amounts (≈) assume the structure as drawn. “And” between values parts separate entries of the source, which are not always exact repeats. Equal values may be shown once. The source made the active and inactive calls. The rule behind the calls is not given here. Positions of bridges follow the written chain, without caps; N, C: chain ends. Non-standard residues stand in square brackets, D forms with d. Residues, ends and D or L forms follow the SMILES beside them. *: point of attachment. Ileψ(thiazoline)Cys = CC[C@H](C)[C@H](N)C1=N[C@H](C(=O)*)CS1; dOrn = NCCC[C@@H](N)C(=O)O

Key:
Staphylococcus aureus [1] = experiment: Antimicrobial activity against Staphylococcus aureus ATCC 29213 incubated for 16 to 20 hrs by CLSI based broth dilution method; type: functional; details: time 16-20 hrs
[2] = system: Stenotrophomonas maltophilia; experiment: Antimicrobial activity against Stenotrophomonas maltophilia ATCC 17808 incubated for 16 to 20 hrs by CLSI based broth dilution method; type: functional; details: time 16-20 hrs
Escherichia coli = experiment: Antimicrobial activity against Escherichia coli ATCC 25922 incubated for 16 to 20 hrs by CLSI based broth dilution method; type: functional; details: time 16-20 hrs
Enterococcus faecium = experiment: Antimicrobial activity against Enterococcus faecium ATCC 29212 incubated for 16 to 20 hrs by CLSI based broth dilution method; type: functional
[3] = (§1) Hemolytic activity in sheep erythrocytes incubated for 1 hr by absorbance based analysis; type: toxicity, cell-based, Ovis aries, Erythrocyte; details: sheep erythrocytes
Staphylococcus aureus [4] = experiment: Antimicrobial activity against methicillin-resistant Staphylococcus aureus incubated for 16 to 20 hrs by CLSI based broth dilution method; type: functional; details: time 16-20 hrs
Staphylococcus aureus [5] = experiment: Antimicrobial activity against Staphylococcus aureus; type: functional
Erythrocyte = experiment: as §1; type: toxicity, cell-based, Ovis aries; details: erythrocyte, 1 h
Staphylococcus aureus [6] = experiment: Induction of drug resistance in Staphylococcus aureus ATCC 29213 at 0.1 times MIC measured after 20 passages; type: functional
[7] = Cytotoxicity against human BGC cells assessed as inhibition of cell growth incubated for 72 hrs by CCK-8 assay; type: toxicity, cell-based
[8] = Cytotoxicity against human WPMY-1 cells assessed as inhibition of cell growth incubated for 72 hrs by CCK-8 assay; type: toxicity, cell-based
[9] = Cytotoxicity against HUVEC cells assessed as inhibition of cell growth incubated for 72 hrs by CCK-8 assay; type: toxicity, cell-based; details: human
Staphylococcus aureus [10] = experiment: Antimicrobial activity against methicillin-resistant Staphylococcus aureus infected in Kunming female mouse assessed as reduction in bacterial load in skin administered at labeled position and measured after 24 hrs; type: functional, organism-based; details: dose 5-10 mg/kg/day
[11] = Induction of drug resistance in Staphylococcus aureus ATCC 29213 assessed as test compound MIC at sub-MIC measured after 20 days (reference value: 1 ug/ml); type: functional; details: ATCC 29213, 480 h, time 20 day
Staphylococcus aureus [12] = experiment: Antibacterial activity against Staphylococcus aureus ATCC 29213 assessed as inhibition of bacterial growth at 0.5 ug/ml incubated for 16 to 18 hrs in presence of genomic DNA at 0.125 to 4 ug/ml by microplate reader analysis; type: functional, organism-based; details: dose 0.5 µg/ml, time 16-18 hrs
[13] = Staphylococcus aureus, ATCC 29213, read-out: MIC
[14] = Stenotrophomonas maltophilia, ATCC 17808, read-out: MIC
[15] = Escherichia coli, ATCC 25922, read-out: MIC
[16] = Enterococcus faecium, ATCC 29212, time 16-20 hrs, read-out: MIC

Compound | MIC (Staphylococcus aureus [1]; [13]) | MIC [2, 14] | MIC (Escherichia coli; [15]) | MIC (Enterococcus faecium; [16]) | HC50 at 1 h [3] | further results
CCCCCC[N+](C)(C)CCCOc1ccccc1-c1ccccc1OCCC[N+](C)(C)CCCCCC.[Br-].[Br-] | 2 µg/mL | 128 µg/mL | 128 µg/mL | 16 µg/mL | > 1280 µg/mL | 
CCCCCCCC[N+](C)(C)CCCOc1cccc(-c2cccc(OCCC[N+](C)(C)CCCCCCCC)c2)c1.[Br-].[Br-] | 2 µg/mL | 2 µg/mL | 1 µg/mL | 0.5 µg/mL | 145 µg/mL | 
CO[C@H]1/C=C/O[C@@]2(C)Oc3c(C)c(O)c4c(O)c(c(/C=N/N5CCN(C)CC5)c(O)c4c3C2=O)NC(=O)/C(C)=C\C=C\[C@H](C)[C@H](O)[C@@H](C)[C@@H](O)[C@@H](C)[C@H](OC(C)=O)[C@@H]1C [RIFAMPIN] |  |  |  |  |  | MIC90 (Staphylococcus aureus [4]): 128 µg/mL (≈ 156 µM)
CCCCCCN(CCCOc1ccc(-c2ccc(OCCCN(CCCCCC)C(=O)[C@@H](N)CCCCN)cc2)cc1)C(=O)[C@@H](N)CCCCN.Cl.Cl.Cl.Cl |  |  |  |  |  | MIC (Staphylococcus aureus [5]): 1 µg/mL
CCCCCCCCCC[N+](C)(C)CCCOc1cccc(-c2cccc(OCCC[N+](C)(C)CCCCCCCCCC)c2)c1.[Br-].[Br-] | 1 µg/mL | 2 µg/mL | 2 µg/mL | 0.5 µg/mL | 19 µg/mL | 
GENTAMICIN |  |  |  |  |  | MIC90 (Staphylococcus aureus [4]): 2 µg/mL
C[C@@H](O)[C@H]1C(=O)N2C(C(=O)O)=C(S[C@@H]3CN[C@H](C(=O)N(C)C)C3)[C@H](C)[C@H]12 [MEROPENEM] |  |  | 0.063 µg/mL (≈ 0.164 µM) |  | > 1280 µg/mL | 
CCCCCCCCCC[N+](C)(C)CCCOc1ccc2ccccc2c1-c1c(OCCC[N+](C)(C)CCCCCCCCCC)ccc2ccccc12.[Br-].[Br-] | 16 µg/mL | 16 µg/mL | 16 µg/mL | 16 µg/mL | 228 µg/mL | MIC (Staphylococcus aureus [1]): 16 µg/mL; MIC [2]: 16 µg/mL; MIC (Escherichia coli): 16 µg/mL; MIC (Enterococcus faecium; time 16-20 hrs): 16 µg/mL; HC50 (Erythrocyte): 371 µg/mL
CCCCCCCC[N+](C)(C)CCCOc1ccc2ccccc2c1-c1c(OCCC[N+](C)(C)CCCCCCCC)ccc2ccccc12.[Br-].[Br-] | 2 µg/mL | 2 µg/mL | 2 µg/mL | 2 µg/mL | 28 µg/mL | MIC (Staphylococcus aureus [1]): 2 µg/mL; MIC [2]: 2 µg/mL; MIC (Escherichia coli): 2 µg/mL; MIC (Enterococcus faecium; time 16-20 hrs): 2 µg/mL; HC50 (Erythrocyte): 20 µg/mL
CCCCCC[N+](C)(C)CCCOc1ccc(-c2ccc(OCCC[N+](C)(C)CCCCCC)cc2)cc1.[Br-].[Br-] | 2 µg/mL | 1 µg/mL | 2 µg/mL | 1 µg/mL | 487 µg/mL | 
CCCCCCCC[N+](C)(C)CCCOc1ccccc1-c1ccccc1OCCC[N+](C)(C)CCCCCCCC.[Br-].[Br-] | 1 µg/mL | 2 µg/mL | 1 µg/mL | 0.5 µg/mL | 109 µg/mL | 
CC[C@H]1OC(=O)[C@H](C)[C@@H](O[C@H]2C[C@@](C)(OC)[C@@H](O)[C@H](C)O2)[C@H](C)[C@@H](O[C@@H]2O[C@H](C)C[C@H](N(C)C)[C@H]2O)[C@](C)(O)C[C@@H](C)C(=O)[C@H](C)[C@@H](O)[C@]1(C)O [ERYTHROMYCIN] |  |  |  |  |  | MIC90 (Staphylococcus aureus [4]): 128 µg/mL (≈ 174 µM)
COc1cccc(OC)c1C(=O)N[C@@H]1C(=O)N2[C@@H]1SC(C)(C)[C@@H]2C(=O)O |  |  |  |  |  | Activity (Staphylococcus aureus [6]): Active
C[C@H]1COc2c(N3CCN(C)CC3)c(F)cc3c(=O)c(C(=O)O)cn1c23 |  |  |  |  |  | Activity (Staphylococcus aureus [6]): Active
CC[C@H](C)[C@H](N)C1=N[C@H](C(=O)N[C@@H](CC(C)C)C(=O)N[C@H](CCC(=O)O)C(=O)N[C@H](C(=O)N[C@H]2CCCCNC(=O)[C@H](CC(N)=O)NC(=O)[C@@H](CC(=O)O)NC(=O)[C@H](Cc3cnc[nH]3)NC(=O)[C@@H](Cc3ccccc3)NC(=O)[C@H]([C@@H](C)CC)NC(=O)[C@@H](CCCN)NC2=O)[C@@H](C)CC)CS1 [BACITRACIN] ({Ileψ(thiazoline)Cys}-L[dE]IK[dOrn]I[dF]H[dD]N; lactam 4-C) | 16 µg/mL (≈ 11.2 µM) |  | > 128 µg/mL | 16 µg/mL (≈ 11.2 µM) |  | 
C=C[C@]1(C)C[C@@H](OC(=O)CS[C@@H]2C[C@H]3CC[C@@H](C2)N3C)[C@]2(C)[C@H](C)CC[C@]3(CCC(=O)[C@H]32)[C@@H](C)[C@@H]1O [RETAPAMULIN] |  |  |  |  |  | IC50 at 72 h [7]: 16 µg/mL (≈ 30.9 µM); IC50 at 72 h [8]: 13.9 µg/mL (≈ 26.8 µM); IC50 at 72 h [9]: 25.5 µg/mL (≈ 49.2 µM)
CN[C@H](CC(C)C)C(=O)N[C@H]1C(=O)N[C@@H](CC(N)=O)C(=O)N[C@H]2C(=O)N[C@H]3C(=O)N[C@H](C(=O)N[C@H](C(=O)O)c4cc(O)cc(O)c4-c4cc3ccc4O)[C@H](O)c3ccc(c(Cl)c3)Oc3cc2cc(c3O[C@@H]2O[C@H](CO)[C@@H](O)[C@H](O)[C@H]2O[C@H]2C[C@](C)(N)[C@H](O)[C@H](C)O2)Oc2ccc(cc2Cl)[C@H]1O [VANCOMYCIN] |  |  |  |  | > 1280 µg/mL | Activity (Staphylococcus aureus [10]): Dose-Dependent Effect; MIC90 (Staphylococcus aureus [4]): 2 µg/mL (≈ 1.38 µM)
CCCCCCCCCCCC[N+](C)(C)CCCOc1ccccc1-c1ccccc1OCCC[N+](C)(C)CCCCCCCCCCCC.[Br-].[Br-] | 16 µg/mL | 32 µg/mL | 32 µg/mL | 4 µg/mL | 12 µg/mL | 
CCCCCC[N+](C)(C)CCCOc1ccc2ccccc2c1-c1c(OCCC[N+](C)(C)CCCCCC)ccc2ccccc12.[Br-].[Br-] | 8 µg/mL | 8 µg/mL | 8 µg/mL | 4 µg/mL |  | MIC (Staphylococcus aureus [1]): 8 µg/mL; MIC [2]: 8 µg/mL; MIC (Escherichia coli): 8 µg/mL; MIC (Enterococcus faecium; time 16-20 hrs): 8 µg/mL; HC50 (Erythrocyte): 405 µg/mL and 868 µg/mL
CC1(C)S[C@@H]2[C@H](NC(=O)[C@H](N)c3ccccc3)C(=O)N2[C@H]1C(=O)O |  |  |  |  |  | Activity (Staphylococcus aureus [6]): Active
CCCCCCCCCC[N+](C)(C)CCCOc1ccccc1-c1ccccc1OCCC[N+](C)(C)CCCCCCCCCC.[Br-].[Br-] | 2 µg/mL | 4 µg/mL | 4 µg/mL | 1 µg/mL | 10 µg/mL | 
CCCCCCN(CCCOc1ccccc1-c1ccccc1OCCCN(CCCCCC)C(=O)[C@@H](N)CCCCN)C(=O)[C@@H](N)CCCCN.Cl.Cl.Cl.Cl |  |  |  |  |  | MIC (Staphylococcus aureus [5]): 0.5 µg/mL
CCn1cc(C(=O)O)c(=O)c2cc(F)c(N3CCNCC3)cc21 [NORFLOXACIN] |  |  |  |  |  | MIC [11]: 64 µg/mL
CCCCCCCC[N+](C)(C)CCCOc1ccc(-c2ccc(OCCC[N+](C)(C)CCCCCCCC)cc2)cc1.[Br-].[Br-] | 1 µg/mL | 2 µg/mL | 1 µg/mL | 0.5 µg/mL | 83 µg/mL | 
O=C(O)c1cn(C2CC2)c2cc(N3CCNCC3)c(F)cc2c1=O |  |  |  |  |  | Activity (Staphylococcus aureus [6]): Active
CCCCCCCCCC[N+](C)(C)CCCOc1ccc(-c2ccc(OCCC[N+](C)(C)CCCCCCCCCC)cc2)cc1.[Br-].[Br-] | 1 µg/mL | 2 µg/mL | 2 µg/mL | 0.5 µg/mL | 18 µg/mL | 
COLISTIN |  |  |  |  |  | Activity (Staphylococcus aureus [12]): Active
C[C@H]1c2cccc(O)c2C(=O)C2=C(O)[C@]3(O)C(=O)C(C(N)=O)=C(O)[C@@H](N(C)C)[C@@H]3[C@@H](O)[C@@H]21.O [DOXYCYCLINE] |  |  |  |  |  | MIC90 (Staphylococcus aureus [4]): 8 µg/mL
